In ChEMBL document CHEMBL5352455, “Discovery of novel N-acylpyrazoles as potent and selective thrombin inhibitors” (Eur J Med Chem, 2023):

How the values were obtained:
[1] = in vitro; conditions: CD-1, mouse, plasma
Description: Stability in CD-1 mouse plasma assessed as half life

[2] = in vitro; conditions: Sprague-Dawley, rat, plasma
Description: Stability in Sprague-Dawley rat plasma assessed as half life

[3] = in vitro; conditions: human, plasma
Description: Stability in human plasma assessed as half life

[4] = Half life in CD-1 mouse at 0.5 mg/kg, iv measured after 24 hrs by LC-MS analysis; assay type: ADME, organism-based; conditions: in vivo
[5] = AUC in CD-1 mouse at 0.5 mg/kg, iv measured after 24 hrs by LC-MS analysis; assay type: ADME, organism-based; design: time 24 hrs, dose 0.5 mg/kg, route iv; conditions: in vivo
[6] = AUC in CD-1 mouse at 5 mg/kg, po measured after 24 hrs by LC-MS analysis; assay type: ADME, organism-based; design: dose 5 mg/kg, time 24 hrs, route po; conditions: in vivo
[7] = Cmax in CD-1 mouse at 5 mg/kg, po measured after 24 hrs by LC-MS analysis; assay type: ADME, organism-based; design: time 24 hrs, dose 5 mg/kg, route po; conditions: in vivo
[8] = Tmax in CD-1 mouse at 5 mg/kg, po measured after 24 hrs by LC-MS analysis; assay type: ADME, organism-based; conditions: in vivo
[9] = Half life in CD-1 mouse at 5 mg/kg, po measured after 24 hrs by LC-MS analysis; assay type: ADME, organism-based; conditions: in vivo
[10] = Oral bioavailability in CD-1 mouse at 5 mg/kg measured after 24 hrs by LC-MS analysis; assay type: ADME, organism-based; conditions: in vivo

C[C@@H]1CNc2c(cccc2S(=O)(=O)N[C@@H](CCCNC(=N)N)C(=O)N2CC[C@@H](C)C[C@@H]2C(=O)O)C1
half-life [1]: > 120 min | half-life [2]: > 120 min | half-life [3]: > 120 min

CC(C)(C)C(=O)n1nc(C2CCCNC2)cc1NCc1ccc(Cl)s1 (stereo unspecified)
half-life [1]: 910 min

O=C(c1ccsc1)n1nc(-c2ccccc2F)nc1NCc1cccs1
half-life [3]: 69 min

CC(C)(CO)C(=O)n1nc(C2CCNCC2)c(F)c1NCc1ccc(Cl)s1
half-life [1]: 44 min

COc1ccccc1C(=O)n1nc(-c2ccccn2)nc1NCc1ccc(Cl)s1
half-life [1]: 4.1 min | half-life [2]: 1.5 min | half-life [3]: 30 min

CC(C)(C)C(=O)n1nc(-c2ccc[nH]c2=O)cc1NCc1ccc(Cl)s1
half-life [4]: 42 min | AUC at 24 h [5]: 300 ng·h/mL | AUC at 24 h [6]: 713 ng·h/mL | Cmax [7]: 127 ng/mL | Tmax [8]: 42 min | half-life [9]: 354 min | bioavailability [10]: 22.8% | half-life [1]: 350 min

COc1ccccc1C(=O)n1nc(-c2ccccc2F)nc1NCc1cccs1
half-life [3]: 48 min

CC(C)(C)C(=O)n1nc(-c2cccnn2)cc1NCc1ccc(Cl)s1
half-life [3]: 51 min

COc1ccccc1C(=O)n1nc(C2CCOCC2)cc1NCc1ccc(Cl)s1
half-life [1]: 160 min

COc1ccccc1C(=O)n1nc(C2CCNCC2)cc1NCc1ccc(Cl)s1
half-life [1]: 43 min
